Values joined by “and” are separate entries in the source; they are usually repeats but may differ in a detail not shown here. Equal entries are not always repeated. Where two headings read alike, the source gives them in different places.
Tests used:
[1] = Intrinsic (maximum) solubility in water at pH 1.5; type: physicochemical; details: 25 °C, pH 1.5, simulated gastric fluid
Description: The pH conditions were chosen to ensure that the solubility of the unionised species was estimated. […] Lea & Febiger/Philadelphia. […] […] The solvent (9.9 mL) was then added to the test tube. […] The test tube was sonicated for 15 minutes and centrifuged for 10 minutes (3000 g at 25° C.). An aliquot was filtered (Minisart 0.45 μm filter, Satorius) and diluted with HPLC mobile phase, then assayed. The tube was stored carefully in a 25° C. water bath after sampling and the remaining suspension was again sonicated and the process repeated 7 times at four hourly intervals. In these assays, standard curves were prepared by directly dissolving the esters in mobile phase. Concentrations for standard curves ranged from 1-50 μg/mL for all compounds. Furthermore, a manual injector (Waters Model U6K) was used (20 μL sample loop) which ensured that 20 μL was consistently injected onto the column and precluded the need for an internal standard.

[2] = In vitro non-enzymatic hydrolysis in Krebs-Henseleit buffer; type: physicochemical; details: for Hydrolysis rate constant (k): pH 7.4, 25° C., n=5; for half-life: pH 7.4
Description: These experiments were carried out both in Krebs-Henseleit buffer containing either no protein or 2% w/v BSA (bovine serum albumin, fraction V, Sigma) at pH 7.4 and 25±1° C.
Solutions of the derivatives in Krebs buffer (10 mL) was prepared in siliconised glass tubes. Each solution was sonicated for 5 minutes and centrifuged for 5 minutes (3000 g) at 25° C. to ensure maximum dissolution and to sediment any undissolved precipitate. About 7.5 mL of the supernatant was then transferred to a clean siliconised test tube and a 100 μL aliquot was removed and assayed. […] The rate of non-enzymatic hydrolysis (k) for each derivative was then estimated using the following equation: […]
where C1 is the concentration of the ester at any time (t), and C0 is the concentration of the ester at time zero. The half-life (t½) was determined using the formula: […]

[3] = target: T1, BSA (bovine serum albumin) (Bos taurus, UniProt P02769); assay: Protein binding by ultrafiltration in 2% BSA Krebs buffer; type: in vitro ADME; details: 2% BSA Krebs-Henseleit buffer pH 7.4, 37° C.; slope of Scatchard plot
T1 construct: BSA (bovine serum albumin, fraction V, Sigma); purchased Sigma; host or cells: bovine serum (fraction V)
Description: These experiments were carried out in Krebs-Henseleit buffer containing 2% w/v BSA (pH 7.4) and incubated at 37° C. for 30 minutes.
A known concentration of the ethanolic (≲1%) aspirin analogue or diflunisal ester stock solution was added to the 2% BSA Krebs solution to make final concentrations of 125 μM, 250 μM and 500 μM.
The unbound fraction (fu) of parent drug and its hydrolysis product were investigated using ultra-filtration: A 1.0 mL aliquot sample (in triplicate) was placed in a ultrafiltration tube (MPS-1, micro-partition system, Amicon) and centrifuged at 3000 g for 10 minutes. The ultra-filtrate was then assayed for parent drug and its hydrolysis product by HPLC.
To eliminate possible errors caused by hydrolysis, identical samples were placed in normal tubes and subjected to the same procedure. This control group (also in triplicate) was used to adjust for the percentage of hydrolysis in the ultra-filtrate under the experimental conditions.
The fu was determined as the ratio of the free concentration to total concentration of solutes. The binding constant (K) was determined from the slope of a Scatchard plot using following equation:
[Db]/[D]=−K[Db]vK[Pt] (3)
where [Db] is the concentration of bound drug, [D] is the concentration of drug, [Pt] is the concentration of total protein, and v is the number of independent binding sites available. This equation is plotted as the ratio [Db]/[D] versus [Db] and in this way the binding constant (K) is determined from the slope while vK[Pt] is determined from the intercept (Martin, 1983).

[4] = system: human platelet rich plasma; assay: Platelet aggregation induced by arachidonic acid; type: cell-based; details: compound 600 µM, 37° C., arachidonic acid 200 µM
Description: Platelet aggregation studies were carried out using a single channel Lumiaggregometer (Chrono-Log Company, Haverton, Pa.) at 37° C. using human platelet-rich and platelet-poor plasma. Platelet-rich plasma (PRP) with a platelet concentration of […] (measured with a Coulter counter) was prepared by centrifuging 3.8% citrated […] (1:9) at 1,500 rpm using a (Beckman) benchtop centrifuge at room temperature for 15 minutes. Platelet-poor plasma (PPP) was prepared by further centrifuging residual blood from platelet-rich plasma at 3,000 rpm for 30 minutes. Platelet-poor plasma was also confirmed b y Coulter counting for platelet content.
Platelet aggregation studies were preceded by pipetting 0.4 mL platelet-rich plasma into a stirred aggregometer tube and calibrate to 90% of recorder. Platelet-poor plasma was set to calibrate at 10% of recorder. Platelet aggregation was initiated by the addition of a arachidonic acid (Sigma) or ADP (Sigma).
10 mM solutions of each compound (TABLE 6) were prepared in 1 mL of normal saline solution (containing 4% BSA) before use. An aliquot (400 μL) of platelet-rich plasma was pipetted into a stirred aggregometer tube at 37° C. and 30 μL of test sample added simultaneously. This mixture was preincubated for varying period (3 to 45 minutes), then arachidonic acid (AA) was added (final conc.=200 μM) to initiate platelet aggregation. If no aggregation occurred, 20 μM ADP was added to confirm the vitality of the platelets (if the platelets are vital, ADP will induce this AA-test sample-plasma mixture to aggregate). This procedure is necessary to investigate whether the non-aggregation phenomenon is due to drug inhibition or simply due to inviable platelets (unable to respond to AA). The degree of aggregation was measure by calculating the area under the turbidimetric response curve (AUC).

T1 sequence (P02769 25-607): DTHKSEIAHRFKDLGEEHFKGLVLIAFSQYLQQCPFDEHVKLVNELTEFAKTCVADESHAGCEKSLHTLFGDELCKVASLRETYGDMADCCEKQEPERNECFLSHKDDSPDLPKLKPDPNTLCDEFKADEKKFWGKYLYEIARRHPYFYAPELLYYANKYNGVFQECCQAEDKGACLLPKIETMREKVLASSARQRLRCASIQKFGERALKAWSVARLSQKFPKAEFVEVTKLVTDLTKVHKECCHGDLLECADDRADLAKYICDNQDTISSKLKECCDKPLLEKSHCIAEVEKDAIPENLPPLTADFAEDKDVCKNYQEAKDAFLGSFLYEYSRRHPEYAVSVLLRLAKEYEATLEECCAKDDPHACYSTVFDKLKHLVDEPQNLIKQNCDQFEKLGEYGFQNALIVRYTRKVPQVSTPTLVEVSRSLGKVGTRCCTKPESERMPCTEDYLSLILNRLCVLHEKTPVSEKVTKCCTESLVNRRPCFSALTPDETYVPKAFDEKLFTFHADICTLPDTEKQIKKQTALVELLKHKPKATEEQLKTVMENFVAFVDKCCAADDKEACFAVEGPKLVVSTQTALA

CCCCCCCC(=O)Oc1ccccc1C(=O)O [Compound C8SA, n-octanoylsalicylic acid]
solubility [1]: 2 µg/mL and 8 µM
Hydrolysis rate constant (k) ([2]; Krebs-Henseleit buffer 0% BSA, U = Undetectable): 0.0051 ± 0.0031 hour^1
Hydrolysis rate constant (k) ([2]; Krebs-Henseleit buffer 2% BSA): 0.0010 ± 0.0004 hour^1
half-life ([2]; Krebs-Henseleit buffer with 2% w/v BSA, 2% BSA Krebs buffer, read-out: Half-life (converted)): ~30 days
half-life ([2]; bovine, Krebs-Henseleit buffer with 2% w/v BSA, read-out: Half life (t1/2) (converted)): 28.9 days
half-life ([2]; protein-free Krebs-Henseleit buffer, Krebs-Henseleit buffer 0% BSA, first half life, t1/2=0.693/k, U = Undetectable, read-out: Half life (t1/2) (converted)): 5.66 days
Protein binding constant (K) [3]: 13978 L/mol
Platelet Aggregation (% of control) ([4]; preincubation 3 minutes): 95.4 ± 2.1 % of control
Platelet Aggregation (% of control) ([4]; preincubation 5 minutes): 92.4 ± 0.1 % of control
Platelet Aggregation (% of control) ([4]; preincubation 8 minutes): 87.3 ± 3.3 % of control
Platelet Aggregation (% of control) ([4]; preincubation 10 minutes): 67.5 ± 2.7 % of control
Platelet Aggregation (% of control) ([4]; preincubation 12 minutes): 27.3 ± 0.2 % of control
Platelet Aggregation (% of control) ([4]; preincubation 15 minutes): 0 % of control
Platelet Aggregation (% of control) ([4]; preincubation 20 minutes): 0 % of control
Platelet Aggregation (% of control) ([4]; preincubation 25 minutes): 0 % of control
Platelet Aggregation (% of control) ([4]; preincubation 45 minutes): 0 % of control
